Test results as given in patent US8609680B2, “2,3-dihydro-1H-inden-1-yl-2,7-diazaspiro[3.5] nonane derivatives” (Pfizer Inc., priority 2010, dated 2013).
Where two headings read alike, the source gives them in different places.

Target: T1, human GHSR1a (Homo sapiens, UniProt Q92847)
T1 construct: expressed in transfected cells; host or cells: HEK293 Tetracycline-Inducible cell line, used as membranes
Assay: Human Ghrelin SPA Binding Assay
Source text: The SPA format was utilized for high throughput screening of test compounds and filter binding served for more comprehensive binding characterization.
Human Ghrelin SPA Binding Assay

[1] = SPA format, [125I] ghrelin displacement, human GHSR1a membranes from HEK293 Tetracycline-Inducible cell line

T1 sequence (Q92847 whole entry): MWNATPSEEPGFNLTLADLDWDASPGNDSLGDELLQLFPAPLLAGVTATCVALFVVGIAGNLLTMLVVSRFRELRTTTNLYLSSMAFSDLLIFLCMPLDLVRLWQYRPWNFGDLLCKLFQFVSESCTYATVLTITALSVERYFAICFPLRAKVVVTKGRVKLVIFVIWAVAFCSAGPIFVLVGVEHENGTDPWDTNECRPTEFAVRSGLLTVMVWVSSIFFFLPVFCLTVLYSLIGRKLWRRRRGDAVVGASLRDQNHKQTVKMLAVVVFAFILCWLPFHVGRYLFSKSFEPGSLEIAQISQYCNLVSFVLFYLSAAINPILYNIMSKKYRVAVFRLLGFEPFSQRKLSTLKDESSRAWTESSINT

SMILES | IC50 [nM] | Ki [nM] | IC50 [1] [nM] | Ki (SPA format, [125I] ghrelin displacement, human GHSR1a membranes, Ki=IC50/(1+[ligand]/Kd)) [nM]
COc1ccc(CC(=O)N2CCC3(CC2)CN(C2CCc4cc(-c5ncc(C)cn5)ccc42)C3)cc1 (racemic) [Example 1E] | 34.1 |  |  | 
COc1ccc(CC(=O)N2CCC3(CC2)CN(C2CCc4cc(-c5nccs5)ccc42)C3)nc1 (racemic) [Example 1F] |  | 22.8 |  | 
COc1ccc(CC(=O)N2CCC3(CC2)CN(C2CCc4cc(Oc5ccccc5)ccc42)C3)nc1 (racemic) [Example 1I] | 36.6 | 29.5 |  | 
COc1ccc(CC(=O)N2CCC3(CC2)CN(C2CCc4cc(-c5ccnc(C)c5)ccc42)C3)nc1 (racemic) [Example 2B] | 6.75 |  |  | 
COc1ccc(CC(=O)N2CCC3(CC2)CN(C2CCc4cc(-c5ccc(C)cn5)ccc42)C3)nc1 (racemic) [Example 2D] | 21.4 |  |  | 
COc1ccc(CC(=O)N2CCC3(CC2)CN(C2CCc4cc(-c5ncc(OC)cn5)ccc42)C3)nc1 (racemic) [Example 2E] | 35.2 | 63.6 |  | 
COc1ccc(CC(=O)N2CCC3(CC2)CN(C2CCc4cc(-c5cc(C)ccn5)ccc42)C3)nc1 (racemic) [Example 2G] | 6.22 |  |  | 
Cc1cn2cc(CC(=O)N3CCC4(CC3)CN(C3CCc5cc(-c6ncccn6)ccc53)C4)nc2s1 (stereo not drawn) [Example 1B] |  | 4.59 | 3.79 | 
O=C(Cc1n[nH]c2ccccc12)N1CCC2(CC1)CN(C1CCc3cc(-c4ncccn4)ccc31)C2 (stereo not drawn) [Example 1C] | 16.4 | 14.2 |  | 
COc1ccc(CC(=O)N2CCC3(CC2)CN(C2CCc4cc(-c5ccnc(C)n5)ccc42)C3)cc1 (stereo not drawn) [Example 1D] | 19.4 |  |  | 
COc1ccc(CC(=O)N2CCC3(CC2)CN(C2CCc4cc(-c5nccs5)ccc42)C3)nc1 (stereo not drawn) [Example 1F-1] |  | 3.98 | 5.46 | 
COc1ccc(CC(=O)N2CCC3(CC2)CN(C2CCc4cc(-c5ncc(C)s5)ccc42)C3)nc1 (stereo not drawn) [Example 1G] | 7.56 | 8.67 |  | 
Cc1nn2cc(CC(=O)N3CCC4(CC3)CN(C3CCc5cc(-n6nccn6)ccc53)C4)nc2s1 (stereo not drawn) [Example 1H] | 11.1 | 10.4 |  | 
COc1ccc(CC(=O)N2CCC3(CC2)CN(C2CCc4cc(-c5nccc(C)n5)ccc42)C3)cc1 (stereo not drawn) [Example 1J] | 5.25 | 5.12 |  | 
Cc1ccnc(-c2ccc3c(c2)CCC3N2CC3(CCN(C(=O)Cc4cn5cc(C)sc5n4)CC3)C2)n1 (stereo not drawn) [Example 1K] | 25.9 |  |  | 
CCc1cc(-c2ccc3c(c2)CC[C@H]3N2CC3(CCN(C(=O)Cc4ccc(OC)cc4C#N)CC3)C2)ncn1 [Example 3AB] | 32.9 | 28.8 |  | 
COc1ccc(CC(=O)N2CCC3(CC2)CN([C@@H]2CCc4cc(-c5cc(C#N)ncn5)ccc42)C3)nc1 [Example 3AC] | 40.5 | 33.8 |  | 
COc1ccc(CC(=O)N2CCC3(CC2)CN([C@@H]2CCc4cc(-c5ccncn5)ccc42)C3)nc1 [Example 3AE] | 73.2 | 68.9 |  | 
COc1ccc(CC(=O)N2CCC3(CC2)CN([C@@H]2CCc4cc(-c5ncco5)ccc42)C3)nc1 [Example 3AG] | 40.1 | 33.1 |  | 

SMILES | IC50 [nM] | Ki [nM] | IC50 [1] [nM] | Ki (SPA format, [125I] ghrelin displacement, human GHSR1a membranes, Ki=IC50/(1+[ligand]/Kd)) [nM]
O=C(Cc1ccc(C(F)(F)F)cc1)N1CCC2(CC1)CN([C@@H]1CCc3cc(-c4ncccn4)ccc31)C2 [Example 3AH] | 90.2 | 72.8 |  | 
COc1ccc(CC(=O)N2CCC3(CC2)CN([C@@H]2CCc4ccccc42)C3)cc1 [Example 3AJ] | 293 | 261 |  | 
CCn1ccc(CC(=O)N2CCC3(CC2)CN([C@@H]2CCc4cc(-c5ncccn5)ccc42)C3)n1 [Example 3AS] | 143 | 122 |  | 
O=C(Cc1cn(-c2ccccc2)cn1)N1CCC2(CC1)CN([C@@H]1CCc3cc(-c4ncccn4)ccc31)C2 [Example 3AV] | 229 | 198 |  | 
O=C(Cc1ccc(C(F)F)cn1)N1CCC2(CC1)CN([C@@H]1CCc3cc(-c4ncccn4)ccc31)C2 [Example 3AW] | 949 | 785 |  | 
Cc1cc(CC(=O)N2CCC3(CC2)CN([C@@H]2CCc4cc(-c5ncccn5)ccc42)C3)[nH]n1 [Example 3AX] | 801 | 691 |  | 
Cc1cc(-c2ccc3c(c2)CC[C@H]3N2CC3(CCN(C(=O)Cc4cn5nccnc5n4)CC3)C2)ncn1 [Example 3AY] | 495 | 440 |  | 
N#Cc1cc(-c2ccc3c(c2)CC[C@H]3N2CC3(CCN(C(=O)Cc4ccc(C5CC5)cn4)CC3)C2)ncn1 [Example 3AZ] | 17.4 | 15.4 |  | 
Cc1ccc(CC(=O)N2CCC3(CC2)CN([C@@H]2CCc4cc(-c5ccn(C)n5)ccc42)C3)nc1 [Example 3J] | 52.9 | 46.5 |  | 
COc1ccc(CC(=O)N2CCC3(CC2)CN([C@@H]2CCc4cc(-c5ccnc(C)n5)ccc42)C3)nc1 [Example 3K] | 99.5 | 87.1 |  | 
Cc1nn2cc(CC(=O)N3CCC4(CC3)CN([C@@H]3CCc5cc(-c6ncccn6)ccc53)C4)nc2s1 [Example 3O] | 30.2 | 28.1 |  | 
COc1ccc(NC(C)=O)c(CC(=O)N2CCC3(CC2)CN([C@@H]2CCc4cc(-c5ncccn5)ccc42)C3)c1 [Example 3P] | 36.3 | 31.7 |  | 
O=C(Cc1cn2ccccc2n1)N1CCC2(CC1)CN([C@@H]1CCc3cc(-c4ncccn4)ccc31)C2 [Example 3Q] | 26.6 | 23 |  | 
O=C(Cc1ccc2c(n1)OCCO2)N1CCC2(CC1)CN([C@@H]1CCc3cc(-c4ncccn4)ccc31)C2 [Example 3R] | 25.5 | 22.2 |  | 
Cc1ccc(CC(=O)N2CCC3(CC2)CN([C@@H]2CCc4cc(-c5nccc(C)n5)ccc42)C3)nc1 [Example 3T] | 82.4 | 73 |  | 
COc1ccc(CC(=O)N2CCC3(CC2)CN([C@@H]2CCc4cc(-c5cc(OC)ncn5)ccc42)C3)nc1 [Example 3V] | 20.7 | 17.4 |  | 
Cc1ccnc(-c2ccc3c(c2)CC[C@H]3N2CC3(CCN(C(=O)Cc4cn5nc(C)sc5n4)CC3)C2)n1 [Example 3Y] | 30.7 | 25.9 |  | 
O=C(Cc1ccc(C2CC2)cc1)N1CCC2(CC1)CN([C@@H]1CCc3cc(-c4ncccn4)ccc31)C2 [Example 5A-1, (R)-7-[(4-cyclopropylphenyl)acetyl]-2-(5-pyrimidin-2-yl-2,3-dihydro-1H-inden-1-yl)-2,7-diazaspiro[3.5]nonane] | 4.5 | 3.77 |  | 

More lines, now with the values ahead:

IC50 [nM] | Ki [nM] | IC50 [1] [nM] | Ki (SPA format, [125I] ghrelin displacement, human GHSR1a membranes, Ki=IC50/(1+[ligand]/Kd)) [nM] | SMILES
7.02 | 6.15 |  |  | O=C(Cc1ccc(C2CC2)cc1)N1CCC2(CC1)CN(C1CCc3cc(-c4ncccn4)ccc31)C2 (racemic) [Example 5A, 7-[(4-Cyclopropylphenyl)acetyl]-2-(5-pyrimidin-2-yl-2,3-dihydro-1H-inden-1-yl)-2,7-diazaspiro[3.5]nonane]
5.9 |  |  |  | O=C(Cc1cc2ccccn2n1)N1CCC2(CC1)CN(C1CCc3cc(-c4ncccn4)ccc31)C2 (racemic) [Example 5H]
8.57 | 9.26 |  |  | O=C(Cc1cc2n(n1)CCCC2)N1CCC2(CC1)CN(C1CCc3cc(-c4ncccn4)ccc31)C2 (racemic) [Example 5I]
9.29 | 8.02 |  |  | Cc1ccn2cc(CC(=O)N3CCC4(CC3)CN([C@@H]3CCc5cc(-c6ccc(C(N)=O)cc6)ccc53)C4)nc2c1 [Example 4A, 4-[(1R)-1-{7-[(7-methylimidazo[1,2-a]pyridin-2-yl)acetyl]-2,7-diazaspiro[3.5]non-2-yl}-2,3-dihydro-1H-inden-5-yl]benzamide]
70.5 | 60.7 |  |  | COc1ccc(CC(=O)N2CCC3(CC2)CN([C@@H]2CCc4cc(-c5ccc(C#N)nc5)ccc42)C3)nc1 [Example 4B, 5-[(1R)-1-{7-[(5-methoxypyridin-2-yl)acetyl]-2,7-diazaspiro[3.5]non-2-yl}-2,3-dihydro-1H-inden-5-yl]pyridine-2-carbonitrile]
49.3 | 43.3 |  |  | CCc1ccc(CC(=O)N2CCC3(CC2)CN([C@@H]2CCc4cc(-c5ccc(C(N)=O)cc5)ccc42)C3)nc1 [Example 4C]
20.1 | 17.5 |  |  | COc1ccc(CC(=O)N2CCC3(CC2)CN([C@@H]2CCc4cc(-c5ccc(C(N)=O)cc5)ccc42)C3)nc1 [Example 4D]
42.6 | 36.8 |  |  | NC(=O)c1ccc(-c2ccc3c(c2)CC[C@H]3N2CC3(CCN(C(=O)Cc4cn5ccccc5n4)CC3)C2)cc1 [Example 4E]
18.6 |  |  | 16.1 | CCc1ccc(CC(=O)N2CCC3(CC2)CN([C@@H]2CCc4cc(-n5nccn5)ccc42)C3)nc1 [Example 5D]
18.6 | 15.6 |  |  | Cc1ccc(CC(=O)N2CCC3(CC2)CN([C@@H]2CCc4cc(-c5ncccn5)ccc42)C3)cc1 [Example 5E]
12.8 | 10.4 |  |  | CCc1ccc(CC(=O)N2CCC3(CC2)CN([C@@H]2CCc4cc(-c5ncccn5)ccc42)C3)cc1 [Example 5F]
 | 54.8 |  |  | Cc1ccc(CC(=O)N2CCC3(CC2)CN([C@@H]2CCc4cc(-n5nccn5)ccc42)C3)nc1 [Example 6A, 7-[(5-methylpyridin-2-yl)acetyl]-2-[5-(2H-1,2,3-triazol-2-yl)-2,3-dihydro-1H-inden-1-yl]-2,7-diazaspiro[3.5]nonane]
43.2 | 34.4 |  |  | CCOc1ccc(CC(=O)N2CCC3(CC2)CN([C@@H]2CCc4cc(-n5nccn5)ccc42)C3)nc1 [Example 6G]
483 | 417 |  |  | COc1ccc(CC(=O)N2CCC3(CC2)CN([C@@H]2CCc4cc(-n5cncn5)ccc42)C3)nc1 [Example 6I]
327 | 264 |  |  | COc1ccc(CC(=O)N2CCC3(CC2)CN([C@@H]2CCc4cc(-c5nnc(C)s5)ccc42)C3)nc1 [Example 6J]
42.2 | 37.5 |  |  | Cc1ccc(CC(=O)N2CCC3(CC2)CN([C@@H]2CCc4cc(-c5ncccn5)ccc42)C3)c(C(N)=O)c1 [Example 7A]
25.5 | 22.2 |  |  | COc1ccc(CC(=O)N2CCC3(CC2)CN([C@@H]2CCc4cc(-c5ncccn5)ccc42)C3)c(C(N)=O)c1 [Example 7B]
